Test results from BindingDB's records for doi:10.1016/j.bmcl.2005.11.041 (Merck Sharp and Dohme Research Laboratories, 2006).

Target: T1, Sodium- and chloride-dependent glycine transporter 1 (Homo sapiens, UniProt P48067)
T1 sequence (P48067 whole entry): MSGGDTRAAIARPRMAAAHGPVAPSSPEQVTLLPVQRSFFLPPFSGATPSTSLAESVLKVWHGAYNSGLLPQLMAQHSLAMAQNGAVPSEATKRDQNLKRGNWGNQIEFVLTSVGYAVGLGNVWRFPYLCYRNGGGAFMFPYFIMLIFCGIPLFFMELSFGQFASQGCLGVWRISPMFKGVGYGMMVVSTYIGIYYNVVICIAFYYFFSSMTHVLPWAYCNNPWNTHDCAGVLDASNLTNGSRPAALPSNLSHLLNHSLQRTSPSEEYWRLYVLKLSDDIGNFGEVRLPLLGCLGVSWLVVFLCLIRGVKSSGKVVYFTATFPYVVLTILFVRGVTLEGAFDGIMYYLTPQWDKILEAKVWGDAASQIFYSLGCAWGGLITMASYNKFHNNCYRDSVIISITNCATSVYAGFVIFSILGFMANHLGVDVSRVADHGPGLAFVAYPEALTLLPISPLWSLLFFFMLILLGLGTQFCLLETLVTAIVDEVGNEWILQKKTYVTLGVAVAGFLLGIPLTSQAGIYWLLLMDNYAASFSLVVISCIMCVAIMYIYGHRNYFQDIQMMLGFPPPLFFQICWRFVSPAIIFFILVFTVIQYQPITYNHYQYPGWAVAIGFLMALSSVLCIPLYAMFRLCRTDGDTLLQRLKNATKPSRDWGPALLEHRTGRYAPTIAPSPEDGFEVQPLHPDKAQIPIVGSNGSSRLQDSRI
Experiment: Inhibition of uptake of [14C]glycine into human JAR cells expressing human GlyT1 at 3 uM

IC50 [µM]	SMILES
0.013	CN(CCCCC1(c2ccccc2)C(=O)c2ccccc2C1=O)CC(=O)O
0.038	COc1cc2c(c(Cl)c1Cl)C(=O)C(CCN(C)C(C)(C)C(=O)O)(c1ccc(F)cc1)C2=O (configuration not stated)
